The test system of series [1] is HCT116. As to the kind of experiment: In vitro cytotoxicity, cell viability with CellTiter-Blue. The series is classed as cell-based. To be noted: Homo sapiens, HCT-116, 72 h. As to the method: (§1) The biological activity of the compounds of the invention was studied in vitro on 7 human cancer cell lines of different tissular origin (HCT116: coloreactal carcinoma; K562: chronic myeloid leukaemia; B16-F10: melanoma; U87: glioblastoma; H1299: non-small cell lung cancer and MDA-MB 231 and MDA-MB 435: breast cancer). The cells chosen for this study were incubated at 37° C. in the presence of one of the compounds added to the culture medium at different concentrations. All the experiments conducted allowed determination of the extent of toxicity of the tested compound, effect thereof on the cell cycle process and capacity thereof to induce cell death by apoptosis.
(§2) The cancer cell lines were obtained from the American Type Culture Collection (Rockville, Md., USA) and were cultured following the supplier's recommendations.
The cells H1299, U87, MDA-MB231, MDA-MB435 and B16F10 were cultured in Dulbecco Minimal Essential Medium (DMEM) containing 4.5 g/l glucose, supplemented with 10% foetal calf serum and 1% glutamine. The K562 and HCT116 cells were cultured in RPMI 1640 medium containing 10% foetal calf serum and 1% glutamine. All the cell lines were held in culture at 37° C. in a humid atmosphere containing 5% CO2. Cell viability was evaluated using the reagent CellTiter-Blue™ (Promega, Wis., USA) paying heed to the manufacturer's instructions. The cells were seeded in 96-well culture plates to the proportion of 5000 cells per well in 50 μl culture medium. […] All the compounds were tested in triplicate for each defined concentration, and each experiment was repeated 3 times. After 72 hours of incubation, 20 μl resazurin were added to each well. After 2 hours of incubation, the emitted fluorescence was measured at 590 nm after excitation at 560 nm using a fluorescence reader of Victor type (Perkin-Elmer, USA).

For series [2], the system named is mouse P-388 leukemia cells. To be noted: cited from earlier work.
For series [3], the target named is T1, tubulin (Sus scrofa, UniProt P02550+P02554).
T1 construct: from porcine brain in which it forms 20 to 25% of soluble proteins; from tissue; host or cells: porcine brain
T1 sequence (P02554 whole entry): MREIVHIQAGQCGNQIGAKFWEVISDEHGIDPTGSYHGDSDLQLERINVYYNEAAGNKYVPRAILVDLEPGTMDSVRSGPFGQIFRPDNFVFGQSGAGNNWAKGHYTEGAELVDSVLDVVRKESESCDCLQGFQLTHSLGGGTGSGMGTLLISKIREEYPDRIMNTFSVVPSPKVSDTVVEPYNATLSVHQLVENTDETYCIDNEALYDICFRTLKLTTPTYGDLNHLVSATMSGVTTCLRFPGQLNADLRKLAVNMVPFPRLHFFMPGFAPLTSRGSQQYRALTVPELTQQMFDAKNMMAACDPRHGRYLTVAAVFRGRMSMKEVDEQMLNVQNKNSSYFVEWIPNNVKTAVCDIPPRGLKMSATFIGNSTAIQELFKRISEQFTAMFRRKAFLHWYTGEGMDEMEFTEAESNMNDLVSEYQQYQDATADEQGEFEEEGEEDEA
T1 sequence (P02550 whole entry): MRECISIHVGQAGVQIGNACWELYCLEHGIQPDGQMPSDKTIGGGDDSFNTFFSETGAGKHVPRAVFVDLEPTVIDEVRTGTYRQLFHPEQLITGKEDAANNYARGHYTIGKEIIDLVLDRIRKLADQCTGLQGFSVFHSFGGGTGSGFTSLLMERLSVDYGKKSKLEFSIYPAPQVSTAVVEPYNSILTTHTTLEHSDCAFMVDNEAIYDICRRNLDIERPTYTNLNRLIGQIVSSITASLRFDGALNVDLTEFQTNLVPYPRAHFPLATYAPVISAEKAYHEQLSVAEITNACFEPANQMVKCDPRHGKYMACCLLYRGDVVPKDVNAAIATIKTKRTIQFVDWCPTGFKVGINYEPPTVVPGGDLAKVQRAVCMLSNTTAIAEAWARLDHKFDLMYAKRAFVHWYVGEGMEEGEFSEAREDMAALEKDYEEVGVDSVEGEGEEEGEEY
As to the kind of experiment: Inhibition of tubulin polymerization followed by turbidimetry. The series is classed as biochemical, porcine. To be noted: for IC50: tubulin from porcine brain, turbidimetry at 350 nm; for Inhibiting activity of tubulin polymerisation, in words: compared with CA-4 or between the enantiomers. On the procedure:
These tests were conducted on tubulin purified using the Shelanski method (Shelanski, M. C.; Gaskin, F.; Cantor, C. R. Proc. Natl. Acad. Sci. USA, 1973, 70, 765-768) from porcine brain in which it forms 20 to 25% of soluble proteins. The purification method is based on temperature-dependent assembly-disassembly cycles. Polymerisation of tubulin was followed by turbidimetry using the Gaskin method (Gaskin, F.; Cantor, C. R.; Shelanski, M. L.; J. Bio. Mol., 1974, 89, 737) at a wavelength of 350 nm. The different samples were dissolved in DMSO and incubated 10 minutes at 37° C. then 5 minutes at 0° C.
The compound CA-4 and DMSO were used as reference.

Series [4] relates to MDA-MB 231. Nature of the series: In vitro cytotoxicity, cell viability with CellTiter-Blue. In kind it is cell-based. To be noted: Homo sapiens, read-out: IC50 for different cell lines, M231. As to the method:
as §1, §2
The cells H1299, U87, MDA-MB231, MDA-MB435 and B16F10 were cultured in Dulbecco Minimal Essential Medium (DMEM) containing 4.5 g/l glucose, supplemented with 10% foetal calf serum and 1% glutamine. […] Cell viability was evaluated using the reagent CellTiter-Blue™ (Promega, Wis., USA) paying heed to the manufacturer's instructions. […] After 2 hours of incubation, the emitted fluorescence was measured at 590 nm after excitation at 560 nm using a fluorescence reader of Victor type (Perkin-Elmer, USA).
(Resazurin is reduced to fluorescent resorufin, in cell work by metabolically active cells.)

The conditions of series [5]: cited from earlier work.
Series [6] concerns HCT-15 cells. The following applies: read-out: IC50, cytotoxic effect; cited from earlier work.
Series [7] deals with mouse colon adenocarcinoma 26. To be noted: cited from earlier work.
The test system of series [8] is EAhy926. As to the kind of experiment: Formation of vascular tubes on Matrigel (anti-vascular activity). The series is classed as cell-based, human. The following applies: treatment time of 3 hours at 0.5 μM or 1 μM. As to the method: The Matrigel™ is deposited in 96-well culture plates to the proportion of 70 μl/well and left to incubate at 37° C. for 45 minutes to allow polymerization thereof. […] After 3 hours of incubation at 37° C., the cells were observed and photographed using an optical microscope of TE2000 type (Nikon, France) equipped with a camera (FIG. 3).
In parallel, 15,000 EAhy926 cells in suspension in 150 μl of culture medium were seeded in each of the wells containing Matrigel™. […] The effect of the product was observed and photographed after 3 hours of incubation using an optical microscope (FIG. 4).

[9] abbreviates: 72 hours of incubation, read-out: IC50 for different cell lines, HCT116.

Each structure is given as a SMILES string. Read-outs that look alike come from different tables or passages of the source.

A word on the IC50: it is the midpoint of a concentration-inhibition curve. For the compound `COc1ccc(C(C)c2cc(OC)c(OC)c(OC)c2)cc1N` (centres unmarked) [Compound I-21], in series [1] (read-out: IC50 for different cell lines, HCT116, 72 hours of incubation), the IC50 is 60 nM.

On to `COc1ccc(C=Cc2cc(OC)c(OC)c(OC)c2)cc1O` (single isomer, unassigned) [E isomer of CA-4], for which the “Cytotoxic activity, times lower than the natural Z isomer” value in series [2] was “approximately 60 times”.

Consider `COc1ccc(C(CC#N)c2cc(OC)c(OC)c(OC)c2)cc1O` (centres unmarked) [Compound I-19], for which, in series [1] (setting [9]), the IC50 came out at 80 nM.

Compound `COc1cc(OC)cc(C(C)c2ccc(OC)c(N)c2)c1` (centres unmarked) [Compound I-38] had an IC50 in series [3] of 11000 nM.

Consider `COc1cc(OC)cc(C(C)c2ccc(OC)c(O)c2)c1` (centres unmarked) [Compound I-18], for which the IC50 in series [3] worked out at 11000 nM.

Consider `COc1ccc(C(C)c2cc(OC)c(OC)c(OC)c2)cc1OC(=O)CN(C)C` (centres unmarked) [Compound I-14], for which the IC50 in series [4] (MDA-MB-231, 72 hours of incubation, in DMSO) stood at 50 nM; in series [1] (72 hours of incubation, in DMSO, read-out: IC50 for different cell lines, HCT116) it was 50 nM; in series [1] (72 hours of incubation, in water, read-out: IC50 for different cell lines, HCT116) it was 90 nM.

Regarding `COc1ccc(C(C)c2cc(OC)c(OC)c(OC)c2)cc1O` (single isomer, unassigned) [Compound I-1b], in series [3], the “Inhibiting activity of tubulin polymerisation, in words” value is listed as “the same capacity to inhibit tubulin polymerisation” and the IC50 is 6700 to 8000 nM.

On to `COc1ccc(/C=C\c2cc(OC)c(OC)c(OC)c2)cc1O` [CA-4, combretastatin A-4], for which the Solubility in water result in series [5] was “low solubility in water”. Besides, the IC50 in series [6] was 0.9 nM. The “Antitumor activity in vivo” value in series [7] is recorded as “no antitumor activity is observed”.

Regarding `COc1ccc(C(C)c2cc(OC)c(OC)c(OC)c2)cc1F` (centres unmarked) [Compound I-9], the concentration for half-maximal inhibition (IC50) in series [3] was found to be 6000 nM; in series [1] (setting [9]) it was 85 nM.

Consider `COc1ccc(C(C)c2cc(OC)c(OC)c(OC)c2)cc1OP(=O)(O)O` (centres unmarked) [Compound I-16], for which the IC50 in series [4] (MDA-MB-231, 72 h) was determined as 50 nM; in series [1] (read-out: IC50 for different cell lines, HCT116, 72 hours of incubation, in DMSO) it was 90 nM; in series [1] (read-out: IC50 for different cell lines, HCT116, 72 hours of incubation, in water), 100 nM. In addition, in series [8], the “Number of vascular tubes” value was “major decrease in the number of vascular tubes”.

For `COc1ccc(C(c2cc(OC)c(OC)c(OC)c2)C(F)F)cc1O` (centres unmarked) [Compound I-20], the IC50 in series [1] (setting [9]) was 30 nM.

Compound `COc1ccc(C(C)c2cc(OC)c(OC)c(OC)c2)cc1O` (centres unmarked) [Compound I-1] gave an IC50 in series [3] of 3200 nM.

As for `COc1ccc(C(C)c2cc(OC)c(OC)c(OC)c2)cc1O` (single isomer, unassigned) [Compound I-1a], in series [3], the “Inhibiting activity of tubulin polymerisation, in words” value is on record as “the same capacity to inhibit tubulin polymerisation” and the IC50 was 5000 to 6000 nM.

(Values after patent publication US20110160228A1, “DIHYDRO-ISO-CA-4 AND ANALOGUES: POTENT CYTOTOXICS, INHIBITORS OF TUBULIN POLYMERIZATION” (CENTRE NATIONAL DE LA RECHERCHE SCIENRIFIQUE (CNRS), priority 2008, published 2011).)
